Source: patent US6262021A, “Use of substances having oxytocin activity for preparation of medicaments for wound healing” (EntreTech Medical AB, priority 1997, dated 2001)

How the values were obtained:
FGF-1 = experiment: Concentration of FGF in skin biopsies from the injured area of diabetic mice; format: in vivo, C57BL/Ks-db/db diabetic mice; details: 10 μg/cm^2 oxytocin; skin biopsies 7 days after injury; ten mice; p<0.001
Protocol: The concentration of FGF was compared in skin biopsies taken from the injured area ("ulcer") of ten mice treated with 10 μg/cm^2 oxytocin and ten mice treated with PBS 7 days after injury. […] This increase in concentration was highly significant (p<0.001) and strongly support the hypothesis that oxytocin increases wound healing through an increased expression and synthesis of FGF-1.

NGF = details: intravenous injection, female rats; cited from earlier work
central α2 -receptors = experiment: Activity of central α2-receptors after oxytocin; format: in vivo; details: rats; by way of a central action
Description: Experiments have shown that oxytocin by way of a central action increases the activity of the central α2 -receptors in rats. These receptors have an inhibitory action and counteracts the activating aspects of noradrenalin in the brain which are mainly mediated via α1 -receptors, which activate cyclic AMP. When α2 -receptor stimulation dominates over α1 -receptor stimulation, activity is exchanged by relaxation and energy is shunted towards growing and healing, i.e. is not used for stress or muscular contraction and activity. As a consequence parasympathetic nerve tone dominates over sympathetic nervous tone and the musculature is relaxed. It can be presumed that oxytocin exerts a similar effect also in humans. During breast feeding--a situation characterized by repetitive oxytocin secretion--all the effects observed in experimental animals following repeated oxytocin administration are seen. It is not known how the effect by oxytocin on α2 -receptors is mediated, but probably not by a classical oxytocin receptor mediated effect.

[1] = test system: full-thickness dermal excisional wounds; experiment: Wound healing in diabetic mice after administration of oxytocin (Test 2); format: in vivo, C57BL/Ks-db/db diabetic mice
Description: For studying the effects of cutaneous wound-healing agents on chronic non-healing dermal ulcers the mutant C57BL/Ks-db/db diabetic mouse has emerged as a potentially relevant healing-impaired model. These homozygous genetically diabetic mice develop obesity and hyper-glycemia that is resistant to insulin, analogous to human type II diabetes. They also show signs of diabetes such as excessive drinking and urination and greatly elevated urinary glucose levels. […] Previous studies have used this model to evaluate formulations of aFGF.
Female C57BL/Ks-db/db diabetic mice, 11 weeks old, were obtained from Jackson Laboratories (Bar Harbor, Me.). The mice were housed in sterile microisolator boxes (four per box) with sterile water and bedding and were kept in a semi-barrier quarantine facility. Supplemental heat was provided with electric heating pads under half of each box after wounding to prevent hypothermia and reduce mortality.
Mice were anesthetized with intraperitoneal injections of 110 mg ketamine and 9 mg xylazine per kg of body weight. The mid-back and thoracic skin was shaved and disinfected with a 2% Chlorhexidine surgical scrub, followed by 70% ethanol. A template 1.6 cm in diameter was used to mark a 2.0 cm^2 circle on the mid-dorsal area, and a single full-thickness wound was created by blunt excision with sterile curved iris scissors. […] All surgical and subsequent healing analysis procedures were performed in a laminar flow hood using full aseptic techniques. Doses were administrated on 5 consecutive days before, and on day 0, 3 and 7 after injury. Oxytocin was administrated at different doses, 0.001, 0.01, 0.1, 1.0, 10.0 and 100.0 μg/cm^2 , respectively, to groups of 16 mice per dose. The wounds were covered with a semitransparent Bioclusive dressing (Johnson & Johnson Products, New Brunswick, N.J.) for protection, maintenance of a moist environment and prevention of crust formation. Wound fluid samples were taken at day 10 after injury and cultured for aerobic and anaerobic microorganisms.
Wound appearances were recorded photographically and their perimeters were traced onto sterile glass slides applied directly to the exposed wound surfaces after pre-wetting with a drop of sterile physiologic saline. Measurements were made immediately after wounding and twice weekly thereafter until the wounds were completely closed. Wound areas and perimeters were determined from the glass-slide tracings using computerized image analysis. Statistical significances of differences between groups were evaluated using an unpaired two-tailed Student t-test.
Healing expressed as a decrease in percent initial area was converted to linear ingrowth from the wound edges by dividing the differences in wound areas by the average wound perimeters at sequential time intervals. Total ingrowth at a specific time is the sum of the incremental ingrowth distances up until that time. This transformation linearized closure as a function of time, thereby allowing expression of healing as kinetic rates that were constant over time.
Wounds, examined twice weekly to monitor time to total closure, were considered fully healed when moist granulation tissue was no longer apparent, indicating a functional epidermal water-permeability barrier. Closure was also confirmed histologically. Time-point comparisons of the fraction of healed versus unhealed wounds were analyzed by the X^2 statistic with Yates correction, and group comparisons of absolute days to total closure for individual animals were analyzed by an unpaired two-tailed Student t-test.

musculocutaneous flaps = experiment: Survival of musculocutaneous flaps in rats after administration of oxytocin (Test 1); format: in vivo, rats (Sprague-Dawley); details: 1 mg/kg s.c. 24 h and 1 h before and 24 h after operation; estimated six days after operation; oxytocin p<0.05, antagonist no significance p=0.13
Description: An established model of wound healing is to investigate the survival of musculocutaneous flaps in rats. In plastic surgery, reconstructive problems are often solved by surgical flaps. The main disadvantage of surgical flaps has been their tendency to develop ischemia and eventually necrosis of the distal part. This complication can in the end ruin what postoperatively seemed to be an excellent result. Much research has been devoted to explain the mechanisms of surgical skin flap survival and how to prevent and reverse established ischemia.
The aim of this study was to investigate the effects of oxytocin on the survival of musculocutaneous flaps in rats.
71 female albino rats (Sprague-Dawley, weight 180-220 g) were anaesthetized with chloralhydrate (0.4 g/kg), shaved on the back and a dorsal cranially based standard flap (2×7 cm) was elevated and then sutured back in position. The flap was raised from the deep fascia of muscle and included the superficial fascia, panniculus carnosus, subcutaneous tissue and skin. 24 h and 1 h before operation, respectively, as well as 24 h after operation the rats were treated with 1 mg/kg oxytocin s.c. (n=20), an oxytocin antagonist, that is 1-deamino-2-D-Tyr-(OEt)-4-Thr-8-Orn-oxytocin in an amount of 1 mg/kg (n=15), with 1 mg/kg of said oxytocin antagonist and then after 30 minutes with 1 mg/kg oxytocin (n=16), or with saline (n=20). […]

## CC[C@H](C)[C@@H]1NC(=O)[C@H](Cc2ccc(O)cc2)NC(=O)[C@@H](N)CSSC[C@@H](C(=O)N2CCC[C@H]2C(=O)N[C@@H](CC(C)C)C(=O)NCC(N)=O)NC(=O)[C@H](CC(N)=O)NC(=O)[C@H](CCC(N)=O)NC1=O [oxytocin]
FGF-1
  FGF-1 synthesized, increase compared to PBS vehicle treated mice: 162%
NGF
  hypothalamic levels of NGF: increase
Central α2 -receptors
  activity of the central α2 -receptors: increases
[1]; 0.001 μg/cm^2, 0.01 μg/cm^2 and 0.1 μg/cm^2 doses
  healing rates over paired vehicle controls: ineffective
[1]; 10 μg/cm^2, all time intervals, p≤0.01
  linear rate of healing from the wound edges: increased
[1]; 10 μg/cm^2, as early as day 7 after injury and throughout the test period, p≤0.01
  enhancement of the healing rate of treated wounds: Statistically significant enhancements
[1]; 10 μg/cm^2, by day 14, p≤0.05
  total closure (fraction of wounds closed): increases
[1]; 10 μg/cm^2, day 14
  decrease in wound size in treated mice compared with PBS/heparin vehicle: 10 fold
[1]; 10 μg/cm^2, from 14 d after injury
  maximum difference in percent of initial area between oxytocin and vehicle-treated wounds: 50%
[1]; 10 μg/cm^2, vehicle-treated group 0.18 mm/d, p≤0.01
  mean linear healing rate: 0.45 mm/d
[1]; 0.001-μg/cm^2 and 0.01 μg/cm^2 doses
  decrease of time to total closure: ineffective
[1]; 1 to 100 μg/cm^2 per dose
  time required for wounds to close completely: significantly reduced
[1]; dose range 1.0 to 10.0 μg/cm^2
  wounds closed sooner than respective vehicle controls: approximately 10 d
[1]; three doses of 10 μg per cm^2 initial wound area during first week after wounding, topical
  wound closure compared with vehicle control: substantially faster
[1]; three doses of 10 μg/cm^2 during first week after injury, vehicle 52 d, p≤0.0001
  median time to complete closure: 23 days
[1]; three topical applications, 1 to 100 μg/cm^2 per dose, first week after injury
  healing rates over paired vehicle controls: significant dose-related increases
Musculocutaneous flaps
  survival of the flaps compared to the saline-treated controls: significantly higher
